Experiment [1] deals with human PGHS-2 protein expression in LPS stimulated human monocytes. Nature of the experiment: Prostoglandin Endoperoxide Synthase-2 (PGHS-2) Assay. Particulars: for LPS induced PGHS-2 protein expression (inactive in this assay): up to 10 uM; for inhibited LPS induced PGHS-2 protein expression (active in this assay): rank order potency similar to that for inhibiting cytokine production. The experiment is classed as cell-based. The method, then: The following assay describes a method for determining the inhibitory effects of compounds of Formula (I) on human PGHS-2 protein expression in LPS stimulated human monocytes.
Human peripheral blood monocytes were isolated from buffy coats by centrifugation through Ficoll and Percoll gradients. Cells were seeded at 2×10^6/well in 24 well plates and allowed to adhere for 1 hour in RPMI supplemented with 1% human AB serum, 20 mM L-glutamine, Penicillin-Streptomycin and 10 mM HEPES. Compounds were added at various concentrations and incubated at 37° C. for 10 minutes. LPS was added at 50 ng/well (to induce enzyme expression) and incubated overnight at 37° C. The supernatant was removed and cells washed once in cold PBS. The cells were lysed in 100 μl of cold lysis buffer(50 mM Tris/HCl pH 7.5, 150 mM NaCl, 1% NP40, 0.5% sodium deoxycholate, 0.1% SDS, 300 ug/ml DNAse, 0.1% TRITON X-100, 1 mM PMSF, 1 mM leupeptin, 1 mM pepstatin). The lysate was centrifuged (10,000×g for 10 min. at 4° C.) to remove debris and the soluble fraction was subjected to SDS PAGE. analysis (12% gel). Protein separated on the gel were transferred onto nitrocellulose membrane by electrophoretic means for 2 hours at 60 volts. The membrane was pretreated for one hour in PBS/0.1% Tween 20 with 5% non-fat dry milk. After washing 3 times in PBS/Tween buffer, the membrane was incubated with a 1:2000 dilution of a monospecific antiserum to PGHS-2 or a 1:1000 dilution of an antiserum to PGHS-1 in PBS/Tween with 1% BSA for one hour with continuous shaking. The membrane was washed 3× in PBS/Tween and then incubated with a 1:3000 dilution of horseradish peroxidase conjugated donkey antiserum to rabbit Ig (Amersham) in PBS/Tween with 1% BSA for one hour with continuous shaking. The membrane was then washed 3× in PBS/Tween and the ECL immunodetection system (Amersham) was used to detect the level of expression of prostaglandin endoperoxide synthases-2.

In experiment [2] the test system is pro-inflammatory proteins including, IL-6, IL-8, GM-CSF and COX-2. Particulars: cited from earlier work.

Structures are written as SMILES.

Consider `C[S+]([O-])c1ccc(-c2nc3n(c2-c2ccncc2)CCC3)cc1` (stereo not shown) [2-(4-Methylsulfinylphenyl)-3-(4-pyridyl)-6,7-dihydro-(5H)-pyrrolo[1,2-a]imidazole], for which the “LPS induced PGHS-2 protein expression (inactive in this assay)” value in experiment [1] was “inactive”.
For the compound `Fc1ccc(-c2nc3n(c2-c2ccncc2)CCS3)cc1` [6-(4-Fluoro-phenyl)-2,3-dihydro-5-(4-pyridinyl)imidazo[2,1-b]thiazole], the “inhibited LPS induced PGHS-2 protein expression (active in this assay)” value in experiment [1] was “active”.
With `C[C@@H]1C[C@H]2[C@@H]3CCC4=CC(=O)C=C[C@]4(C)[C@@]3(F)[C@@H](O)C[C@]2(C)[C@@]1(O)C(=O)CO` [Dexamethasone], the “inhibited LPS induced PGHS-2 protein expression (active in this assay)” value in experiment [1] is listed as “active”.
For the compound `COc1ccc(C2CNC(=O)C2)cc1OC1CCCC1` (stereo not shown) [Rolipram], the “LPS induced PGHS-2 protein expression (inactive in this assay)” value in experiment [1] was “inactive”.
Consider `C[S+]([O-])c1ccc(-c2nc(-c3ccncc3)c(-c3ccc(F)cc3)[nH]2)cc1` (stereo not shown) [SB 203580], for which the “synthesis of pro-inflammatory proteins including IL-6, IL-8, GM-CSF and COX-2” value in experiment [2] is reported as “decrease”.
`Fc1ccc(-c2nc3n(c2-c2ccncc2)CCS3)cc1` [SK&F 86002]: the “synthesis of pro-inflammatory proteins including IL-6, IL-8, GM-CSF and COX-2” value in experiment [2] was “decrease”.
For `O=C1CCN(c2ccccc2)N1` [phenidone], the “LPS induced PGHS-2 protein expression (inactive in this assay)” value in experiment [1] was “inactive”.

These data come from US6730683B2, “Compounds of heteroaryl substituted imidazole, their pharmaceutical compositions and uses” (SmithKline Beecham Corporation, priority 1997, dated 2004).
